In US20060216333A1, “Methods related to the treatment of mucosal associated conditions” (priority 2003, published 2006):

Columns and labels:
Type in all cases: in vivo, rat
TNF = experiment: Serum and vaginal tissue TNF after intravaginal dosing of rats (ELISA); conditions: for TNF Tissue: vaginal tissue, per 200 mg
Description: (§1) In the examples below the serum and intravaginal cytokine data were obtained using the following general test method.
(§2) Rats were acclimated to collars (Lomir Biomedical, Malone, N.Y.) around the neck on two consecutive days prior to actual dosing. Rats were collared to prevent removal of the device and ingestion of the drug. Animals were then dosed intravaginally with a removable device or with […] of cream. Single dosed rats received one intravaginal dose with samples collected at various times following dosing. Blood was collected by cardiac puncture. Blood was allowed to clot briefly at room temperature and serum was separated from the clot via centrifugation. The serum was stored at −20° C. until it was analyzed for cytokine concentrations.
(§3) Following blood collection, the rats were euthanized and their vaginal tract, including the cervix, was then removed and the tissue was weighed, placed in a sealed 1.8 mL cryovial and flash frozen in liquid nitrogen. The frozen vaginal tissue sample was then suspended in 1.0 mL of RPMI medium (Celox, St. Paul, Minn.) containing 10% fetal bovine serum (Atlas, Fort Collins, Colo.), 2 mM L-glutamine, penicillin/streptomycin and 2-mercaptoethanol (RPMI complete) combined with a protease inhibitor cocktail set III (Calbiochem, San Diego, Calif.). The tissue was homogenized using a Tissue Tearor (Biospec Products, Bartlesville, Okla.) for approximately one minute. The tissue suspension was then centrifuged at 2000 rpm for 10 minutes under refrigeration to pellet the debris, and the supernatant collected and stored at −20° C. until analyzed for cytokine concentrations.
(§4) ELISA kits for rat TNF were purchased from BD PharMingen (San Diego, Calif.) and the rat MCP-1 ELISA kits were purchased from BioSource Intl. (Camarillo, Calif.).
(§5) Both kits were performed according to manufacturer's specifications. Results for both TNF and MCP-1 are expressed in pg/mL and are normalized per 200 mg of tissue. […] “Post dosing” means after treatment initiation. For example, if a device was inserted a time 0 hours and removed at 2 hours and cytokines were assayed at 4 hours, then the cytokines were assayed at 4 hours post dosing.

rats = experiment: Histologic examination of uterus, cervix, vagina, vulva and perineal skin, Example 11; conditions: 1% device removed after 2 hours
Description: Cotton devices were prepared as described in Example 1. The devices were saturated with either a solution containing 1% by weight of IRM 2 in 50/50 w/w isostearic acid/isopropyl myristate or with 50/50 w/w isostearic acid/isopropyl myristate (vehicle). Three groups of rats were dosed intravaginally 2 times a week for 3 weeks (Tuesday, Friday, Monday, Thursday, Monday, Thursday) with 1% IRM 2 device, vehicle device or with 1% IRM 2 cream. The devices were removed after 2 hours. The cream was left in place. Cytokines were assayed 4 hours post dosing of the final dose. Three more groups of rats were dosed intravaginally with 1% IRM 2 device, vehicle device or with 1% ERM 2 cream. The devices were removed after 2 hours. The cream was left in place. Cytokines were assayed 4 hours post dosing. […] The results are shown in the table below where each value is the mean value for 3 rats.
Groups of 3 rats were treated as described in Example 8 and necropsied 22 hours after the devices were removed. Uterus, cervix, vagina, vulva and perineal skin were collected, fixed and processed routinely for histologic examination.

MCP-1 = experiment: Serum and vaginal tissue MCP-1 after intravaginal dosing of rats (ELISA); conditions: for MCP-1 Tissue: vaginal tissue, per 200 mg
Description: as §1, §2, §3, §4, §5

[1] = 4 hours post dosing, 1% in 50/50 ISA/IPM, cotton pellet device removed after 2 hours, Example 6
[2] = 4 hours post dosing, device 1.0% in 50/50 ISA/IPM, removed after 15 min, Example 4
[3] = 4 hours post dosing, device 1.0% in 50/50 ISA/IPM, removed after 30 min, Example 4
[4] = 4 hours post dosing, device 1.0% in 50/50 ISA/IPM, removed after 60 min, Example 4
[5] = 4 hours post dosing, device 1.0% in 50/50 ISA/IPM, removed after 120 min, Example 4
[6] = 4 hours post dosing, single dose, 1% in 50/50 ISA/IPM cotton device removed after 2 hours, Example 8
[7] = 4 hours post final dose, multiple dose, 2 times a week for 3 weeks, 1% in 50/50 ISA/IPM cotton device removed after 2 hours, Example 8
[8] = Multiple dose (2 times a week for 3 weeks)
[9] = 2 hr post dose, 5% in 50/50 ISA/IPM, cotton pellet device removed after 2 hours, Example 7
[10] = 4 hr post dose, 5% in 50/50 ISA/IPM, cotton pellet device removed after 2 hours, Example 7
[11] = 6 hr post dose, 5% in 50/50 ISA/IPM, cotton pellet device removed after 2 hours, Example 7

## Cc1nc2c(N)nc3ccccc3c2n1CC(C)(C)O [IRM 2, 4-amino-α,α,2-trimethyl-1H-imidazo[4,5-c]quinoline-1-ethanol]
TNF; [1]
  TNF Serum: 4 pg/mL
  TNF Tissue: 384 pg/mL
TNF; [2]
  TNF Serum: 0 pg/mL
  TNF Tissue: 493 pg/mL
TNF; [3]
  TNF Serum: 0 pg/mL
  TNF Tissue: 390 pg/mL
TNF; [4]
  TNF Serum: 0 pg/mL
  TNF Tissue: 537 pg/mL
TNF; [5]
  TNF Serum: 0 pg/mL
  TNF Tissue: 716 pg/mL
TNF; [6]
  TNF Serum: 0 pg/mL
  TNF Tissue: 888 pg/mL
TNF; [7]
  TNF Serum: 0 pg/mL
  TNF Tissue: 1075 pg/mL
rats; [8]
  Lesion incidence: Cervix, Cavitation (epithelium): 0/3
  Lesion incidence: Cervix, Inflammation: 1/3
  Lesion incidence: Perineal skin, Exudate on surface, epidermis: 0/3
  Lesion incidence: Perineal skin, Inflammation, superficial dermis: 1/3
  Lesion incidence: Perineal skin, Spongiosis, epidermis: 1/3
  Lesion incidence: Perineal skin, Subcorneal pustules, epidermis: 1/3
  Lesion incidence: Vagina, Edema, lamina propria: 0/3
  Lesion incidence: Vagina, Inflammation, lamina propria: 3/3
  Lesion incidence: Vulva, Edema, lamina propria: 1/3
  Lesion incidence: Vulva, Erosion: 0/3
  Lesion incidence: Vulva, Inflammation, lamina propria: 3/3
  Lesion incidence: Vulva, Intraepithelial pustules: 0/3
  Lesion incidence: Vulva, Necrosis, epithelium: 1/3
  Lesion incidence: Vulva, Spongiosis, epithelium: 1/3
  Lesion incidence: Vulva, Ulceration: 0/3
rats; Single dose
  Lesion incidence: Cervix, Cavitation (epithelium): 0/3
  Lesion incidence: Cervix, Inflammation: 0/3
  Lesion incidence: Perineal skin, Exudate on surface, epidermis: 0/3
  Lesion incidence: Perineal skin, Inflammation, superficial dermis: 1/3
  Lesion incidence: Perineal skin, Spongiosis, epidermis: 0/3
  Lesion incidence: Perineal skin, Subcorneal pustules, epidermis: 0/3
  Lesion incidence: Vagina, Edema, lamina propria: 0/3
  Lesion incidence: Vagina, Inflammation, lamina propria: 3/3
  Lesion incidence: Vulva, Edema, lamina propria: 0/3
  Lesion incidence: Vulva, Erosion: 0/3
  Lesion incidence: Vulva, Inflammation, lamina propria: 3/3
  Lesion incidence: Vulva, Intraepithelial pustules: 1/3
  Lesion incidence: Vulva, Necrosis, epithelium: 1/3
  Lesion incidence: Vulva, Spongiosis, epithelium: 0/3
  Lesion incidence: Vulva, Ulceration: 0/3
MCP-1; [1]
  MCP-1 Serum: 114 pg/mL
  MCP-1 Tissue: 1016 pg/mL
MCP-1; [2]
  MCP-1 Serum: 68 pg/mL
  MCP-1 Tissue: 433 pg/mL
MCP-1; [3]
  MCP-1 Serum: 83 pg/mL
  MCP-1 Tissue: 454 pg/mL
MCP-1; [4]
  MCP-1 Serum: 118 pg/mL
  MCP-1 Tissue: 889 pg/mL
MCP-1; [5]
  MCP-1 Serum: 92 pg/mL
  MCP-1 Tissue: 2462 pg/mL
MCP-1; [6]
  MCP-1 Serum: 59 pg/mL
  MCP-1 Tissue: 1390 pg/mL
MCP-1; [7]
  MCP-1 Serum: 87 pg/mL
  MCP-1 Tissue: 2353 pg/mL

## COCCc1nc2c(N)nc3ccccc3c2n1CCCCNS(C)(=O)=O [IRM 4, N-{4-[4-amino-2-(2-methoxyethyl)-1H-imidazo[4,5-c]quinolin-1-yl]butyl}methanesulfonamide]
TNF; [1]
  TNF Serum: 0 pg/mL
  TNF Tissue: 109 pg/mL
MCP-1; [1]
  MCP-1 Serum: 105 pg/mL
  MCP-1 Tissue: 713 pg/mL

## CCCCNC(=O)NCCCn1c(CCCC)nc2c(N)nc3ccccc3c21 [IRM 5]
TNF; [1]
  TNF Serum: 1 pg/mL
  TNF Tissue: 358 pg/mL
MCP-1; [1]
  MCP-1 Serum: 108 pg/mL
  MCP-1 Tissue: 958 pg/mL

## CCCCc1nc2c(N)nc3ccccc3c2n1CCS(=O)(=O)C(C)C [IRM 6, 2-butyl-1-{2-[(1-methylethyl)sulfonyl]ethyl}-1H-imidazo[4,5-c]quinolin-4-amine]
TNF; [1]
  TNF Serum: 1 pg/mL
  TNF Tissue: 491 pg/mL
MCP-1; [1]
  MCP-1 Serum: 114 pg/mL
  MCP-1 Tissue: 1840 pg/mL

## CCOCc1nc2c(N)nc3ccccc3c2n1CCNC(=O)NC(C)C [IRM 7, N-{2-[4-amino-2-(ethoxymethyl)-1H-imidazo[4,5-c]quinolin-1-yl]ethyl}-N′-isopropylurea]
TNF; [9]
  TNF Serum: 1 pg/mL
  TNF Tissue: 512 pg/mL
TNF; [1]
  TNF Serum: 0 pg/mL
  TNF Tissue: 219 pg/mL
TNF; [10]
  TNF Serum: 0 pg/mL
  TNF Tissue: 460 pg/mL
TNF; [11]
  TNF Serum: 2 pg/mL
  TNF Tissue: 267 pg/mL
MCP-1; [9]
  MCP-1 Serum: 92 pg/mL
  MCP-1 Tissue: 498 pg/mL
MCP-1; [1]
  MCP-1 Serum: 93 pg/mL
  MCP-1 Tissue: 642 pg/mL
MCP-1; [10]
  MCP-1 Serum: 112 pg/mL
  MCP-1 Tissue: 851 pg/mL
MCP-1; [11]
  MCP-1 Serum: 140 pg/mL
  MCP-1 Tissue: 670 pg/mL

## CCOCc1nc2c(N)nc3ccccc3c2n1CCOCCNC(=O)Nc1ccccc1 [IRM 8, N-(2-{2-[4-amino-2-(ethoxymethyl)-1H-imidazo[4,5-c]quinolin-1-yl]ethoxy}ethyl)-N′-phenylurea]
TNF; [1]
  TNF Serum: 0 pg/mL
  TNF Tissue: 294 pg/mL
MCP-1; [1]
  MCP-1 Serum: 82 pg/mL
  MCP-1 Tissue: 331 pg/mL

## Nc1nc2ccccc2c2c1ncn2CCOCc1ccncc1 [IRM 9, 1-[2-(pyridin-4-ylmethoxy)ethyl]-1H-imidazo[4,5-c]quinolin-4-amine]
TNF; [9]
  TNF Serum: 30 pg/mL
  TNF Tissue: 597 pg/mL
TNF; [10]
  TNF Serum: 4 pg/mL
  TNF Tissue: 697 pg/mL
TNF; [11]
  TNF Serum: 8 pg/mL
  TNF Tissue: 248 pg/mL
MCP-1; [9]
  MCP-1 Serum: 85 pg/mL
  MCP-1 Tissue: 328 pg/mL
MCP-1; [10]
  MCP-1 Serum: 131 pg/mL
  MCP-1 Tissue: 1556 pg/mL
MCP-1; [11]
  MCP-1 Serum: 180 pg/mL
  MCP-1 Tissue: 850 pg/mL

## CCCCc1nc2c(N)nc3ccccc3c2n1CCCS(C)(=O)=O [IRM 10, 2-butyl-1-[3-(methylsulfonyl)propyl]-1H-imidazo[4,5-c]quinoline-4-amine]
TNF; [9]
  TNF Serum: 16 pg/mL
  TNF Tissue: 1110 pg/mL
TNF; [10]
  TNF Serum: 25 pg/mL
  TNF Tissue: 887 pg/mL
TNF; [11]
  TNF Serum: 10 pg/mL
  TNF Tissue: 519 pg/mL
MCP-1; [9]
  MCP-1 Serum: 111 pg/mL
  MCP-1 Tissue: 739 pg/mL
MCP-1; [10]
  MCP-1 Serum: 160 pg/mL
  MCP-1 Tissue: 1440 pg/mL
MCP-1; [11]
  MCP-1 Serum: 155 pg/mL
  MCP-1 Tissue: 975 pg/mL
